Assays:
Format in all cases: in vivo
[1] = test system: Digitaria sanguinalis (DIGSA); assay: Biological Example 3 glasshouse assay, post-emergence, various adjuvant systems; conditions: 8 g/ha
Method: (§1) Post-emergence foliar spray application, 200 L/ha, usually one or two replicates for the weeds (depending on application rate), and two replicates for soybean.
(§2) Standard warm conditions (tropical), in glasshouse. Specifically, the glasshouse bay conditions are 24° C./18° C. day/night; 16/8 hours light/dark; 65% humidity.
(§3) The herbicidal application takes place at the following growth stages for plants which include inter alia one or more of the following plants (usually the herbicidal application takes place on at least the following plants: DIGSA, ELEIN, SETFA, ZEAMX, GLXMA Nikko, and GLXMA TMG133, and often also either BRADC or BRAPP):
Digitaria sanguinalis (DIGSA)—growth stage 12 or 13
(§4) Each test compound is applied with one of the following adjuvant systems (all percentages are final concentrations in the aqueous spray mixture):
(§5) Adjuvant system 2: 0.5% v/v Hexamoll™ DINCH**, 1.0% v/v AMS (ammonium sulphate) and 12.5% v/v IPA (isopropyl alcohol).
(§6) Adjuvant system 3: 0.5% v/v tris-(2-ethylhexyl)phosphate (“TEHP”), 1.0% v/v AMS (ammonium sulphate) and 12.5% v/v IPA (isopropyl alcohol).
(§7) Seeds of the weed (including volunteer) plants, typically including inter alia Digitaria sanguinalis (DIGSA), Eleusine indica (ELEIN), Setaria faberi (SETFA), Zea mays (ZEAMX, corn), and sometimes also [either Brachiaria decumbens (BRADC) or Brachiaria platyphylla (BRAPP)], are sown in seed trays (troughs) containing clay loam soil (pH 7.0, 2.2% organic matter, “Trough Mix A”); and soybean seed is sown in pots containing the same soil with 3 soybean seedlings per pot. The plants are sprayed with the test herbicide when they reach the growth stages mentioned above.
(§8) The test herbicidal solutions are prepared by mixing the appropriate aliquots of the test substance(s) and one of the adjuvant systems indicated above *** in deionised water to give the desired treatment concentration.
(§9) The herbicidal application is made as a foliar spray, using a tracksprayer. Following the herbicidal application, the plants are watered twice per day for the duration of the test.
(§10) A visual assessment of the % herbicidal damage is made 7 and 14 Days After herbicide Application (DAA) (or, in a minority of cases, 7 and 15 DAA), and the results are recorded as % visual herbicidal damage where 0%=no damage to plants and 100%=plant totally killed.
(§11) Compounds A2 and A7 were tested using the 0.5% v/v Hexamoll™ DINCH™+1.0% v/v AMS+12.5% v/v IPA adjuvant system. Compounds A11, A12, A14, A20 and A21 were tested using the 0.5% v/v tris-(2-ethylhexyl)phosphate (“TEHP”)+1.0% v/v AMS+12.5% v/v IPA adjuvant system.
(§12) The percentages of herbicidal damage/plant control, at 14 Days After herbicide Application (DAA) (or, in some cases, at 15 DAA), for the Compounds tested and for some of the plants tested, were in the following percentage ranges. For the tested compounds, the phytotoxicity results shown herein are generally the average of 2 or 3 repetitions (for the grassy weeds including corn) or the average of 2 repetitions (for soybean for most of the tested compounds). However, for Compound A2 on soybean there was 1 repetion only.

[2] = test system: Brachiaria decumbens (BRADC); assay: as above; conditions: 8 g/ha
Method: as §1, §2, §3
Brachiaria decumbens (BRADC)—growth stage (GS) 12 or 13 (or GS 12)—or, if BRADC is not used, then sometimes Brachiaria platyphylla (BRAPP)—growth stage 12 or 13
as §4, §5, §6, §7, §8, §9, §10
Compounds A2 and A7 were tested using the 0.5% v/v Hexamoll™ DINCH™+1.0% v/v AMS+12.5% v/v IPA adjuvant system. Compounds A11, A12, A14, A20 and A21 were tested using the 0.5% v/v tris-(2-ethylhexyl)phosphate (“TEHP”)+1.0% v/v AMS+12.5% v/v IPA adjuvant system. […]

Lolium perenne (LOLPE) = assay: Test 1 glasshouse assay, post-emergence herbicidal activity; conditions: 312 h, post-emergence (Example 1B Table 2), after 13 days, read-out: Percentage phytotoxicity LOLPE
Procedure, shortened: (§13)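 Post-emergence: plants sprayed after 8 days' growth in a glasshouse (24/16 °C day/night, 14 h light, 65% humidity) with compound in acetone/water 50:50 containing 0.5% Tween 20. Phytotoxicity was scored visually 13 days later as percent damage (0 = none, 100 = total).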

Avena fatua (AVEFA) = assay: as above; conditions: 312 h, post-emergence (Example 1B Table 2), after 13 days, read-out: Percentage phytotoxicity AVEFA
Procedure, shortened: as §13

[3] = test system: Triticum aestivum (TRZAW, winter wheat); assay: as above; conditions: 312 h, post-emergence (Example 1B Table 2), after 13 days, crop plant, read-out: Percentage phytotoxicity TRZAW
Procedure, shortened: as §13

[4] = test system: Glycine max (GLXMA, soybean) cultivar TMG133 (Roundup Ready glyphosate-tolerant); assay: Biological Example 3 glasshouse assay, post-emergence, various adjuvant systems; conditions: crop
Method: as §1, §2, §3
Glycine max (GLXMA, soybean) cultivar “TMG133”—which is Roundup Ready™ glyphosate-tolerant soybean cultivar TMG133 (typically available from Monsanto in Brazil)—growth stage: 1st trifoliate.
as §4, §5, §6, §7, §8, §9, §10, §11, §12
Glycine max (GLXMA, soybean) cultivar “TMG133” is Roundup Ready™ glyphosate-tolerant soybean cultivar TMG133, and is typically available from Monsanto in Brazil.

[5] = test system: Zea mays (ZEAMX, maize/corn) cultivar Garland; assay: as above; conditions: 8 g/ha
Method: as §1, §2, §3
Zea mays (ZEAMX, maize/corn, e.g. can occur as volunteer corn) cultivar “Garland”—growth stage 12 or 13
as §4, §5, §6, §7, §8, §9, §10, §11, §12
Zea mays (ZEAMX, maize, corn) is often present as a “volunteer” weed (“volunteer” corn) in fields where it was planted as a crop in preceding growing season(s) and where the present field crop is not corn.

Eleusine indica (ELEIN) = assay: as above; conditions: 8 g/ha
Method: as §1, §2, §3
Eleusine indica (ELEIN)—growth stage 12 or 13
as §4, §5, §6, §7, §8, §9, §10, §11, §12

[6] = test system: Glycine max (GLXMA, soybean) cultivar Nikko; assay: as above; conditions: crop
Method: as §1, §2, §3
Glycine max (GLXMA, soybean) cultivar “Nikko”—growth stage: 1st trifoliate
as §4, §5, §6, §7, §8, §9, §10, §11, §12

[7] = 14 DAA, adjuvant 0.5% v/v Hexamoll DINCH + 1.0% v/v AMS + 12.5% v/v IPA
[8] = 120 g/ha, 14 DAA, adjuvant 0.5% v/v Hexamoll DINCH + 1.0% v/v AMS + 12.5% v/v IPA
[9] = 14 or 15 DAA, adjuvant 0.5% v/v TEHP + 1.0% v/v AMS + 12.5% v/v IPA
[10] = 240 g/ha, 14 or 15 DAA, adjuvant 0.5% v/v TEHP + 1.0% v/v AMS + 12.5% v/v IPA

| SMILES | percentage control of (phytotoxicity on) Digitaria sanguinalis (DIGSA) [1, 7] | percentage control of (phytotoxicity on) Brachiaria decumbens (BRADC) [2, 7] | pest or weed control at 62.5 g/ha (Lolium perenne (LOLPE)) | pest or weed control at 250 g/ha (Lolium perenne (LOLPE)) | pest or weed control at 62.5 g/ha (Avena fatua (AVEFA)) | pest or weed control at 250 g/ha (Avena fatua (AVEFA)) | plant injury at 62.5 g/ha [3] | plant injury at 250 g/ha [3] | percentage phytotoxicity on Glycine max cultivar TMG133 [4, 8] | percentage control of (phytotoxicity on) Zea mays (ZEAMX, maize, corn) [5, 7] | percentage control of (phytotoxicity on) Eleusine indica (ELEIN) (Eleusine indica (ELEIN); [7]) | percentage phytotoxicity on Glycine max cultivar Nikko [6, 8] | percentage control of Digitaria sanguinalis [1, 9] | percentage control of Brachiaria decumbens (BRADC) [2, 9] | percentage phytotoxicity on Glycine max cultivar TMG133 [4, 10] | percentage control of Zea mays [5, 9] | percentage control of Eleusine indica (Eleusine indica (ELEIN); [9]) | percentage phytotoxicity on Glycine max cultivar Nikko [6, 10] |
| --- | --- | --- | --- | --- | --- | --- | --- | --- | --- | --- | --- | --- | --- | --- | --- | --- | --- | --- |
| C#CCC1CC(=O)C(c2c(C)cc(-c3ccc(Cl)cn3)cc2C)C1=O (stereo not drawn) [Compound A2] | 90% | 50% | 70% | 100% | 80% | 100% | 70% | 90% | 20% | 10% | 85% | 10% |  |  |  |  |  |  |
| C#CCC1CC(=O)C(c2c(Cl)cc(-c3ccc(F)cc3F)cc2OC)C1=O (stereo not drawn) [Compound A12] |  |  | 70% | 100% | 60% | 100% | 70% | 80% |  |  |  |  | 98.5% | 99% | 15% | 100% | 90% | 15% |
